# What was measured:
# [1] = biological target: T1, hSTING^H232 (Stimulator of interferon genes) (Homo sapiens, UniProt Q86WV6, H232); assay: SPR (KD […]); also ITC (KD […]), DSF and […] Å co-crystal structure; assay type: binding
# T1 construct: gene STING1
# [2] = biological target: T2, hSTING^HAQ (Stimulator of interferon genes) (Homo sapiens, UniProt Q86WV6, R71H/G230A/H232R/R293Q); assay: thermal shift (DSF), ΔTm; assay type: binding
# T2 construct: gene STING1
# T2 sequence (Q86WV6 whole entry R71H/G230A/H232R/R293Q): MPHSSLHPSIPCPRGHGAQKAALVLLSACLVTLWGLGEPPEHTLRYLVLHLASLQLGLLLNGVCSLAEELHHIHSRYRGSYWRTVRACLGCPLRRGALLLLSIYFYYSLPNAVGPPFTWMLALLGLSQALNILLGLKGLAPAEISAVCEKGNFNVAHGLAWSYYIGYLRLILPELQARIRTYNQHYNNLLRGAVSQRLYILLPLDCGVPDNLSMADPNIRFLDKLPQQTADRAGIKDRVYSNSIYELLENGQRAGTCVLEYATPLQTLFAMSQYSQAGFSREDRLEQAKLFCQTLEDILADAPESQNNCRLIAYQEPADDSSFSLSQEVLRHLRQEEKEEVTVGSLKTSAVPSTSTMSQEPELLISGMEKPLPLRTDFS
# T1 sequence (Q86WV6 whole entry, change not shown): as the sequence (Q86WV6 whole entry R71H/G230A/H232R/R293Q) above, with H71R, A230G, R232H, Q293R counted along it
smiles,measurement,setting,value
COc1cc2[se]c(C(=O)CCC(=O)O)cc2cc1OCCCOc1cc2cc(C(=O)CCC(=O)O)[se]c2cc1OC [diBSP01],Kd,[1],49 nM
same,"thermal shift (DSF), ΔTm",[2],27.0 °C

# Reference: publication PMC10094158, “Discovery of a photoactivatable dimerized STING agonist based on the benzo[b]selenophene scaffold” (Chemical Science, 2023)
